This passage reports IC50 and GI50 results from patent US20250170107A1, “IMIDAZOPYRIDINE INHIBITORS OF TYROSINE KINASE” (BridGene Biosciences. Inc., priority 2022, published 2025).

One test deals with T1, FLT3 (Homo sapiens, UniProt P36888).
T1 construct: purchased ThermoFisher PV3182
T1 sequence (P36888 27-993): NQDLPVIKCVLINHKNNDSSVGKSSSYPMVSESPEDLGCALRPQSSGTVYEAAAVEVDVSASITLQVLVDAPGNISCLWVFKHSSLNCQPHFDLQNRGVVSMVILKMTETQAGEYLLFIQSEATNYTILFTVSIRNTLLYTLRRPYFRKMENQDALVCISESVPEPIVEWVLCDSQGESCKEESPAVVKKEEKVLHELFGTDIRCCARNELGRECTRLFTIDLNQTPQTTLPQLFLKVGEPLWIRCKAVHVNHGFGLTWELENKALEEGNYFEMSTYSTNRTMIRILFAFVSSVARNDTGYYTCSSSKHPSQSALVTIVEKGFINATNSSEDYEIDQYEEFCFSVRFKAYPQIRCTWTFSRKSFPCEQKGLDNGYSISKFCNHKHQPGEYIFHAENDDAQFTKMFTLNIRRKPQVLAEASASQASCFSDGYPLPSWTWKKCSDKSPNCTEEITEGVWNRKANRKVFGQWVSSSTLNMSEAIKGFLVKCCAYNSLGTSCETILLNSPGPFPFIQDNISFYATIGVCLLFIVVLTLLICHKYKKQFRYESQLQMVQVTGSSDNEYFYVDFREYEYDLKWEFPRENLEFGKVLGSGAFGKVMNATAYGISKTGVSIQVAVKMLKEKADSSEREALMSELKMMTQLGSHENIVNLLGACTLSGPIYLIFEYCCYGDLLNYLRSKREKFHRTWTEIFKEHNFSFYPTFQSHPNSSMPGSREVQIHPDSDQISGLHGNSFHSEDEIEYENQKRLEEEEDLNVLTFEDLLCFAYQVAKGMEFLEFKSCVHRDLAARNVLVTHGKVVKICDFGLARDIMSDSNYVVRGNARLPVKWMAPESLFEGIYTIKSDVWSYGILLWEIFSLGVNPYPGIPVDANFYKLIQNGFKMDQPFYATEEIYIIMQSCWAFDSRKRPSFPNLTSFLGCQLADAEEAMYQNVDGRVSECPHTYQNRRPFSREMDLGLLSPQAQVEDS
The test is described as follows: Caliper mobility shift kinase inhibition assay, recombinant FLT3. The format is biochemical. The conditions noted are these: recombinant FLT-3 0.1 nM, ATP 95 μM, incubation 3 hr, room temperature. Here is the method: Compounds' inhibition of recombinant kinases (FLT3, KIT) was measured using Caliper mobility shift assay, which is based on the difference in capillary electrophoresis mobility of a fluorescent-tagged peptide as a result of a phosphorylation by the kinase under study. Reactions were started by the addition of various concentrations of a compound (originally in DMSO solution) to a kinase solution in assay buffer followed by addition of a mixture of ATP and a fluorescent-tagged peptide substrate in assay buffer. Concentrations of the enzyme, ATP and thepeptide were pre-optimized so that 15% substrate conversion to ensure initial velocity measurements. After incubation for 3 hours at room temperature, the kinase reaction was quenched by the addition of a concentrated EDTA solution before analysis on a LabChip EZ Reader II to yield percentage inhibition by comparing to the DMSO control. Table 2 below summarizes the assay conditions for the characterization of the kinase inhibition properties of the disclosed compounds.

The subject of a further test is MV4-11. The test is described as follows: Cell viability assay (CellTiter-Glo), FLT3 cell-based assay. The conditions noted are these: MV4-11 cells, 72 hr at 37° C., 0.1% DMSO. The protocol: Cell viability assay was performed based on the following brief procedures. Cells were plated at the density of 5K/well with volume of 180 μL in 96-well white plate and clear bottom plates. 20 μL of veh. or compound was added at proper concentration to the well. The final volume is 200 μL, with final conc. of DMSO=0.1%, 11 points, triplicates. The cells were then treated at 37° C. in the TC incubator for 72 hr. Equal volume (200 μL) of CellTiter-Glo reagent (Promega) was added to the well and protect from light at room temperature for 15 min. The chemiluminescence was measured with EnSight (Perkin Elmer). GraphPad Prism non-linear regression, Log[inhibitor] response with four parameters were used to calculate GI50.

Another test has as its target T2, KIT (Homo sapiens, UniProt P10721).
T2 construct: purchased BPS 40250
The test is described as follows: Caliper mobility shift kinase inhibition assay, recombinant KIT. The format is biochemical. The conditions noted are these: recombinant KIT 0.9 nM, ATP 400 μM, incubation 17 hr (Table 2).

Some results are limits rather than exact numbers.

T2 sequence (P10721 26-976): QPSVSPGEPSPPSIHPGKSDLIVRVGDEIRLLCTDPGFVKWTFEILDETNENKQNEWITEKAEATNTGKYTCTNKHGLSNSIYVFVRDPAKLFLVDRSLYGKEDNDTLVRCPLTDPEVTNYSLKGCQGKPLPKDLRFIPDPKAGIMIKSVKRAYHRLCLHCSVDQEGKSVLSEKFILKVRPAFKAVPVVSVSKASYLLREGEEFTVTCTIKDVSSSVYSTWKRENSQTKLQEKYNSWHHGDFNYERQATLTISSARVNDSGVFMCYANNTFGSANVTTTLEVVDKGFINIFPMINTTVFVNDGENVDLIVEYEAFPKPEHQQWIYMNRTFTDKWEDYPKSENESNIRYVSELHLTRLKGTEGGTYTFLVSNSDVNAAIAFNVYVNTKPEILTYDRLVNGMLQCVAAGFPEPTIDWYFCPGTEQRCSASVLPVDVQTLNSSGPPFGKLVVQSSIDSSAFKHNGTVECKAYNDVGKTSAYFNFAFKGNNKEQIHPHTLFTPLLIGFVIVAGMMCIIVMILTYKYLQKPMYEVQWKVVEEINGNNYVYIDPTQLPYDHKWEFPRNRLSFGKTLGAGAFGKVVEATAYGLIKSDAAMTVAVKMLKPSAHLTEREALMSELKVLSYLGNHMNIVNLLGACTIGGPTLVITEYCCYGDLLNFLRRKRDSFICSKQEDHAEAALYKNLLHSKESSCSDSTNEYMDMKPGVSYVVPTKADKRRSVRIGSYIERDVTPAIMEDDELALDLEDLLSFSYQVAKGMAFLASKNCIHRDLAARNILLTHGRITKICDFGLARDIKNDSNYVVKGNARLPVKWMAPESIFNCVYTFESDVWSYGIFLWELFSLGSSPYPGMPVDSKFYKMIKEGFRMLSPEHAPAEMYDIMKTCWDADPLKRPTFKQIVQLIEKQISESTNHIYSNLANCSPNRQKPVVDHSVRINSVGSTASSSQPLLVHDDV

Take `C=CC(=O)N1C[C@@H](O)C[C@H]1C(=O)NCCn1cnc2cnc(Nc3ncc(-c4ccc(F)cc4)s3)cc21` [Example 14, (2S,4S)-N-[2-[6-[[5-(4-fluorophenyl)thiazol-2-yl]amino]imidazo[4,5-c]pyridin-1-yl]ethyl]-4-hydroxy-1-prop-2-enoylpyrrolidine-2-carboxamide]: the IC50 at FLT3 and at KIT was < 1 nM each time. In addition, the GI50 with MV4-11 (Homo sapiens) was < 10 nM.
On to `C=CC(=O)N1CC[C@H](O)[C@H]1C(=O)NCCn1cnc2cnc(Nc3ncc(-c4ccc(F)cc4)s3)cc21` [Example 15, (2S,3S)-N-[2-[6-[[5-(4-fluorophenyl)thiazol-2-yl]amino]imidazo[4,5-c]72yridine-1-yl]ethyl]-3-hydroxy-1-prop-2-enoylpyrrolidine-2-carboxamide], for which the IC50 on FLT3 and on KIT was < 1 nM in each case. The GI50 with MV4-11 (Homo sapiens) is < 10 nM.
In the case of `C=CC(=O)N1C[C@H](O)C[C@H]1C(=O)NCCn1cnc2cnc(Nc3ncc(-c4ncncc4F)s3)cc21` [Example 21, (2S,4R)-N-[2-[6-[[5-(5-fluoropyrimidin-4-yl)thiazol-2-yl]amino]imidazo[4,5-c]pyridin-1-yl]ethyl]-4-hydroxy-1-prop-2-enoyl-pyrrolidine-2-carboxamide], the IC50 at FLT3 was in the range of 1 to 10 nM; on KIT, 10 to 100 nM. This compound also registered a GI50 with MV4-11 (Homo sapiens) of 10 to 100 nM.
Turning to `C=CC(=O)N1CCOC[C@H]1C(=O)NCCn1cnc2cnc(Nc3ncc(-c4ncncc4F)s3)cc21` [Example 22, (3S)-N-[2-[6-[[5-(5-fluoropyrimidin-4-yl)thiazol-2-yl]amino]imidazo[4,5-c]pyridin-1-yl]ethyl]-4-prop-2-enoyl-morpholine-3-carboxamide], the IC50 at FLT3 and at KIT was < 1 nM each time. Also, in the test with MV4-11 (Homo sapiens), the GI50 was < 10 nM.
Take `C=CC(=O)N1CC[C@H](O)[C@H]1C(=O)NCCn1cnc2cnc(Nc3ncc(-c4ncccc4F)s3)cc21` [Example 24, (2S,3S)-N-[2-[6-[[5-(3-fluoro-2-pyridyl)thiazol-2-yl]amino]imidazo[4,5-c]pyridin-1-yl]ethyl]-3-hydroxy-1-prop-2-enoyl-pyrrolidine-2-carboxamide]: the IC50 on FLT3 and on KIT was < 1 nM each time. In the test with MV4-11 (Homo sapiens), the GI50 was 10 to 100 nM.
For the compound `CN(C)C/C=C/C(=O)N1CC[C@H](O)[C@H]1C(=O)NCCn1cnc2cnc(Nc3ncc(-c4ncccc4F)s3)cc21` [Example 26, (2S,3S)-1-[(E)-4-(dimethylamino)but-2-enoyl]-N-[2-[6-[[5-(3-fluoro-2-pyridyl)thiazol-2-yl]amino]imidazo[4,5-c]pyridin-1-yl]ethyl]-3-hydroxy-pyrrolidine-2-carboxamide], the IC50 at FLT3 and on KIT was < 1 nM throughout. The compound further came in with a GI50 in the test with MV4-11 (Homo sapiens) of 10 to 100 nM.
Take “(2S,3S)-1-(2-fluoroprop-2-enoyl)-N-[2-[6-[[5-(3-fluoro-2-pyridyl)thiazol-2-yl]amino]imidazo[4,5-c]pyridin-1-yl]ethyl]-3-hydroxy-pyrrolidine-2-carboxamide [Example 25]”: the IC50 is 10 to 100 nM on FLT3 and 100 to 1000 nM on KIT. The same compound yielded a concentration for 50% growth inhibition (GI50) in the test on MV4-11 of 10 to 100 nM.
For “(3S)-4-[(E)-4-(dimethylamino)but-2-enoyl]-N-[2-[6-[[5-(5-fluoropyrimidin-4-yl)thiazol-2-yl]amino]imidazo[4,5-c]pyridin-1-yl]ethyl]morpholine-3-carboxamide [Example 23]”, the IC50 at FLT3 and on KIT was < 1 nM throughout. In the test on MV4-11, this compound showed a GI50 of 10 to 100 nM.
